These results are taken from article PMC10915170, “New oxadiazole and pyrazoline derivatives as anti-proliferative agents targeting EGFR-TK: design, synthesis, biological evaluation and molecular docking study” (Scientific Reports, 2024).

Data set [1] relates to HCT116. Briefly: MTT anti-proliferative assay, HCT116. The note with it: Homo sapiens, HCT-116, mean ± SD of three independent experiments. It is filed as cell-based. As to the method: (§1) Doxorubicin (DOX) was used as a reference drug.
(§2) Cell lines were obtained from ATCC via Holding company for biological products and vaccines (VACSERA), Cairo, Egypt. Doxorubicin (Dox.) is used as a standard anticancer drug. This colorimetric assay is based on the conversion of yellow (MTT) to a purple formazan derivative by mitochondrial succinate dehydrogenase in viable cells. This colorimetric assay was performed according to the reported method[36],[37].

Data set [2] has as its system HePG-2. Description: MTT anti-proliferative assay, HepG-2. The note with it: Homo sapiens, HepG2, read-out: IC50 HePG-2.
Data set [3] deals with MCF7. Description: MTT anti-proliferative assay, MCF7. It is filed as cell-based. Conditions: Homo sapiens, mean ± SD of three independent experiments. As to the method: as §1, §2
For data set [4], the system named is WI-38. Description: MTT cytotoxicity against normal fibroblast cells WI-38. Conditions: Homo sapiens, WI-38, read-out: IC50 WI-38.
Data set [5] addresses EGFR-TK (Homo sapiens, UniProt P00533). Briefly: EGFR-TK inhibition assay.
The test system of data set [6] is HCT116, HepG-2 and MCF7. Briefly: MTT assay, all three cancer cell lines (summary range). Conditions: Homo sapiens, read-out: IC50 range against all cancer cell lines.
Data set [7] concerns HepG-2 cells. Description: Intracellular ROS accumulation assay (ELISA). It is filed as cell-based, human. Conditions: HepG-2, mean ± SD of three experiments, control 105.6 ± 10.8. An excerpt:
Under both physiological and pathological circumstances, reactive oxygen species (ROS) such H2O2 and superoxides play a significant role in the activation of apoptosis. It's interesting to note that mitochondria both produce and absorb ROS.
Intracellular reactive oxygen species (ROS) were detected by the EIAab ROS ELISA kit according to the reported method.

In data set [8] the test system is EGFR. Conditions: cited from earlier work.
The subject of data set [9] is MCF-7. The note with it: cited from earlier work.

Read-outs that look alike come from different tables or passages of the source. Some results are limits rather than exact numbers.

Sequence of EGFR-TK (P00533 25-1210): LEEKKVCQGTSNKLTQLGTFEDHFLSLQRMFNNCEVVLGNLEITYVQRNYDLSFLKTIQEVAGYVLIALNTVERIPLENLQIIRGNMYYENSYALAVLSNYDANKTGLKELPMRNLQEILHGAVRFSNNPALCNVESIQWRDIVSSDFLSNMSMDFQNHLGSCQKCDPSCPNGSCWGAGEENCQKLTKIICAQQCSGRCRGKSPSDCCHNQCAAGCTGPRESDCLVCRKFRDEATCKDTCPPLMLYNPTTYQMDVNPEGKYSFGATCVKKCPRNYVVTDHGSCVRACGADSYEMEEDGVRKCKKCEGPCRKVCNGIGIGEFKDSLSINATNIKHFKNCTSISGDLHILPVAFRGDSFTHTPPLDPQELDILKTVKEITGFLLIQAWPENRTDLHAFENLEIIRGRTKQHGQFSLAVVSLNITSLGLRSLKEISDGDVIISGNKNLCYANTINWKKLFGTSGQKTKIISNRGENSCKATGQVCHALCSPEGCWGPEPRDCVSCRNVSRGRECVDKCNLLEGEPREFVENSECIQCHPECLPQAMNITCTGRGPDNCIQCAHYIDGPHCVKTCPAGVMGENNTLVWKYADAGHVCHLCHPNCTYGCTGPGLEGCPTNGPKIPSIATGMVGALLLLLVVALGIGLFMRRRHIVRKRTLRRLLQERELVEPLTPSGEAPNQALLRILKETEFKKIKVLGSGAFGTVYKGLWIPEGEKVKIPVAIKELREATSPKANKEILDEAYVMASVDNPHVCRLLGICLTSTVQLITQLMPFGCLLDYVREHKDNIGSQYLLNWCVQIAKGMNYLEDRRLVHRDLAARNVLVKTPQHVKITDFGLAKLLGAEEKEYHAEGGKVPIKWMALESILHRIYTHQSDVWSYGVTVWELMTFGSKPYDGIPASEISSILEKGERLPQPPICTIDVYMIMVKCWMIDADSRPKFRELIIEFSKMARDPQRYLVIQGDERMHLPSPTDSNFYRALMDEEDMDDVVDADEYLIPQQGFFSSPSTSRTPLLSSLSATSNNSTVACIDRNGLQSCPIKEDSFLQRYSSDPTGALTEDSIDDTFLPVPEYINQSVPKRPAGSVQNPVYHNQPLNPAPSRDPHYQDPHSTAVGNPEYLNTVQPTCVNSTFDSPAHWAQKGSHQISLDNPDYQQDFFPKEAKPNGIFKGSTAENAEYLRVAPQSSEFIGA

With `Clc1ccc(CSc2nnc(-c3ccc(OCc4ccccc4)cc3)o2)cc1` [Compound 5b, 2-(4-(Benzyloxy)phenyl)-5-((4-chlorobenzyl)thio)-1,3,4-oxadiazole], the melting point is 125 to 127 °C. For the same compound, half-maximal inhibition in data set [1] (IC50) was put at 73.2 ± 4.2 µM. Besides, the IC50 in data set [2] is 38.1 ± 2.2 µM. This compound also registered a 50% inhibitory concentration (IC50) in data set [3] of 84.3 ± 4.4 µM. Besides, the IC50 in [4] amounted to 13.2 ± 1.1 µM.

In turn, `Cc1ccc(CSc2nnc(-c3ccc(OCc4ccccc4)cc3)o2)cc1` [Compound 5c, 2-(4-(Benzyloxy)phenyl)-5-((4-methylbenzyl)thio)-1,3,4-oxadiazole] displayed a melting point of 130 to 132 °C. The compound also gave an IC50 in data set [1] of 79.8 ± 4.4 µM. Besides, the IC50 in [2] came out at 71.4 ± 3.9 µM. The concentration for half-maximal inhibition (IC50) in data set [3] was 92.2 ± 4.9 µM. Further, the IC50 in data set [4] was above 100 µM.

As to `c1ccc(COc2ccc(-c3nnc(SC4CCCCCC4)o3)cc2)cc1` [Compound 5d, 2-(4-(Benzyloxy)phenyl)-5-(cycloheptylthio)-1,3,4-oxadiazole], the melting point was in the range of 83 to 85 °C. The IC50 in data set [1] is 88.6 ± 4.8 µM. The concentration for half-maximal inhibition (IC50) in data set [2] is 82.8 ± 4.5 µM. The compound also had an IC50 in data set [3] above 100 µM. For the same compound, the IC50 in data set [4] was determined as 46.6 ± 2.7 µM.

Compound `c1ccc(COc2ccc(-c3nnc(SC4CCCC4)o3)cc2)cc1` [Compound 5e, 2-(4-(Benzyloxy)phenyl)-5-(cyclopentylthio)-1,3,4-oxadiazole] displayed a melting point of 91 to 93 °C. In data set [1], half-maximal inhibition (IC50) was put at 75.6 ± 4.2 µM. In addition, in data set [2], the IC50 was 59.3 ± 3.4 µM. The compound further displayed an IC50 in data set [3] of 86.8 ± 4.5 µM. Besides, the IC50 in data set [4] is 11.7 ± 0.9 µM.

`CCOC(=O)CSc1nnc(-c2ccc(OCc3ccccc3)cc2)o1` [Compound 5f., Ethyl 2-((5-(4-(benzyloxy)phenyl)-1,3,4-oxadiazol-2-yl)thio)acetate] displayed a melting point of 100 to 102 °C. This compound yielded an IC50 in data set [1] above 100 µM. Further, the IC50 in data set [2] came out at 91.3 ± 5 µM. This compound yielded an IC50 in data set [3] above 100 µM. The IC50 in data set [4] was 77.3 ± 3.9 µM.

Turning to `CC(=O)N1N=C(c2ccc(OCc3ccccc3)cc2)CC1c1cccc(Br)c1` (centres unmarked) [Compound 9a, 1-(3-(4-(Benzyloxy)phenyl)-5-(3-bromophenyl)-4,5-dihydro-1H-pyrazol-1-yl)ethan-1-one], the melting point was in the range of 93 to 95 °C. The IC50 in data set [1] turned out to be 55.3 ± 3.1 µM. Moreover, the IC50 in data set [2] was found to be 32.6 ± 2.1 µM. In data set [3], this compound had a 50% inhibitory concentration (IC50) of 46.1 ± 2.5 µM. The IC50 in data set [4] was determined as 85.1 ± 4.1 µM.

In turn, `CC(=O)N1N=C(c2ccc(OCc3ccccc3)cc2)CC1c1cccc([N+](=O)[O-])c1` (centres unmarked) [Compound 9b, 1-(3-(4-(Benzyloxy)phenyl)-5-(3-nitrophenyl)-4,5-dihydro-1H-pyrazol-1-yl)ethan-1-one] returned a melting point of 127 to 129 °C. In data set [1], this compound came in with an IC50 of 10.2 ± 0.9 µM. Further, the IC50 in [2] worked out at 7.83 ± 0.5 µM. In data set [5], this compound showed an IC50 of 0.2 ± 0.01 µM. For the same compound, the IC50 in data set [3] stood at 15.2 ± 1.2 µM. Also, in data set [4], the IC50 was 55.9 ± 3.2 µM.

`COc1ccc(C2CC(c3ccc(OCc4ccccc4)cc3)=NN2C(C)=O)cc1OC` (centres unmarked) [Compound 9c, 1-(3-(4-(Benzyloxy)phenyl)-5-(3,4-dimethoxyphenyl)-4,5-dihydro-1H-pyrazol-1-yl)ethan-1-one]: the melting point lay in the range of 85 to 87 °C. Further, the IC50 in [1] stood at 16.2 ± 1.2 µM. In addition, the IC50 in data set [2] was 12.2 ± 0.9 µM. In addition, in data set [3], the IC50 worked out at 8.53 ± 0.6 µM. In addition, the IC50 in data set [4] was determined as 49.6 ± 2.8 µM.

`Brc1cccc(C2CC(c3ccc(OCc4ccccc4)cc3)=NN2)c1` (centres unmarked) [Compound 10a, 3-(4-(Benzyloxy)phenyl)-5-(3-bromophenyl)-4,5-dihydro-1H-pyrazole] registered a melting point of 86 to 88 °C. In data set [1], this compound came in with an IC50 of 9.94 ± 0.8 µM. For the same compound, the IC50 in data set [2] came out at 6.32 ± 0.4 µM. Moreover, in [5], the IC50 was found to be 0.7 ± 0.03 µM. Besides, it took 8.11 ± 0.6 µM to reach half-maximal inhibition in data set [3] (IC50). Also, the IC50 in data set [4] is 62.3 ± 3.4 µM.

`O=[N+]([O-])c1cccc(C2CC(c3ccc(OCc4ccccc4)cc3)=NN2)c1` (centres unmarked) [Compound 10b, 3-(4-(Benzyloxy)phenyl)-5-(3-nitrophenyl)-4,5-dihydro-1H-pyrazole] yielded a melting point of 108 to 110 °C. The same compound returned an IC50 in data set [1] of 8.73 ± 0.7 µM. For the same compound, the IC50 in data set [2] turned out to be 3.98 ± 0.2 µM. In [5], this compound returned an IC50 of 0.16 µM. In data set [3], this compound displayed an IC50 of 5.97 ± 0.3 µM. In data set [4], the half-maximal inhibitory concentration (IC50) was 37.9 ± 2.3 µM.

Consider `COc1ccc(C2CC(c3ccc(OCc4ccccc4)cc3)=NN2)cc1OC` (centres unmarked) [Compound 10c, 3-(4-(Benzyloxy)phenyl)-5-(3,4-dimethoxyphenyl)-4,5-dihydro-1H-pyrazole], for which the melting point lay within 128 to 130 °C. For the same compound, the midpoint of inhibition in data set [1], the IC50, lay at 5.55 ± 0.3 µM. Moreover, the IC50 in data set [6] is 1.82 to 5.55 µM. The IC50 in data set [2] was determined as 1.82 ± 0.1 µM. Inhibition in [5] was half-maximal at 0.27 ± 0.01 µM (IC50). In addition, in data set [3], the half-inhibitory concentration (IC50) is 2.86 ± 0.1 µM. Further, the IC50 in data set [4] is 41.2 ± 2.4 µM.

Turning to `COc1cccc2c1C(=O)c1c(O)c3c(c(O)c1C2=O)C[C@@](O)(C(=O)CO)C[C@@H]3O[C@H]1C[C@H](N)[C@H](O)[C@H](C)O1` [DOX, Doxorubicin, reference compound], the IC50 in data set [2] turned out to be 4.5 ± 0.2 µM.

For `COc1cc2ncnc(Nc3ccc(F)c(Cl)c3)c2cc1OCCCN1CCOCC1` [Gefitinib, reference compound], the ROS was determined as 260 ± 14.7 pg/mL in [7] and 260 pg/mL in data set [7] (listed as gefitinib).

In the case of `Nc1ccccc1-c1nnc(SCc2ccccc2)o1` [III], the IC50 in [8] was 1.51 µM.

On to `O=C(CSc1nnc(-c2ccc3nccnc3c2)o1)c1ccc([N+](=O)[O-])cc1` [II], for which, in [8], the IC50 was 0.95 µM.

Turning to `COc1ccc(C2=NN(C(C)=O)C(/C=C/c3ccccc3)C2)cc1` (centres unmarked) [IV], the IC50 in [8] was 0.46 µM; in data set [9], 4.33 µM.

Take `Nc1cc(-c2nnc(SCC(=O)c3ccccc3)o2)ccn1` [I]: the IC50 in [9] is 0.01 µM.

Take `NC(=O)N1N=C(c2ccncc2)CC1c1cn(-c2ccccc2)nc1-c1ccc(OCc2ccccc2)cc1` (centres unmarked) [VI]: the IC50 in [8] is 3.65 µM.

For `CC(=O)N1N=C(c2ccc(-c3cncnc3)cc2)CC1c1ccc(F)cc1` (centres unmarked) [V], the EGFR inhibition rate is 83% in [8] (0.19 μM concentration) and 82% in data set [8] (50 μM concentration).
